Assay results reported in a compilation of properties of binary mixtures (doi:10.1007/s10953-023-01258-3).

Assay: xn = mol fraction of the nth substance listed
Conditions: 101 kPa

Cn1cc[n+](CCCN)c1.F[B-](F)(F)F + CS(C)=O
Conditions | electrical conductivity [S/m] | viscosity [mPa·s]
288.15 K, x1 = 0.1003 | 0.829 | 17.63
288.15 K, x1 = 0.2 | 0.632 | 34.87
288.15 K, x1 = 0.2997 | 0.465 | 54.65
288.15 K, x1 = 0.3997 | 0.288 | 75.94
288.15 K, x1 = 0.4998 | 0.187 | 98.4
288.15 K, x1 = 0.5999 | 0.124 | 122.2
288.15 K, x1 = 0.7001 | 0.078 | 147.4
288.15 K, x1 = 0.8109 | 0.044 | 176.7
288.15 K, x1 = 0.8998 | 0.023 | 201.6
288.15 K, x1 = 1 | 0.011 | 231.2
293.15 K, x1 = 0.1003 | 0.943 | 13.32
293.15 K, x1 = 0.2 | 0.716 | 26.44
293.15 K, x1 = 0.4998 | 0.222 | 76.63
293.15 K, x1 = 0.7001 | 0.097 | 116.9
293.15 K, x1 = 0.8109 | 0.056 | 140.8
293.15 K, x1 = 1 | 0.018 | 185.4
298.15 K, x1 = 0.2 | 0.81 | 20.51
298.15 K, x1 = 0.2997 | 0.609 | 32.66
298.15 K, x1 = 0.3997 | 0.395 | 45.88
298.15 K, x1 = 0.4998 | 0.268 | 60.22
298.15 K, x1 = 0.5999 | 0.186 | 76.06
298.15 K, x1 = 0.7001 | 0.122 | 93.45
298.15 K, x1 = 0.8109 | 0.072 | 113.4
298.15 K, x1 = 0.8998 | 0.046 | 130.1
303.15 K, x1 = 0.1003 | 1.22 | 7.961
303.15 K, x1 = 0.2 | 0.919 | 16.1
303.15 K, x1 = 0.3997 | 0.462 | 36.37
303.15 K, x1 = 0.4998 | 0.317 | 47.87
303.15 K, x1 = 0.5999 | 0.228 | 60.72
303.15 K, x1 = 1 | 0.04 | 121.1
308.15 K, x1 = 0.1003 | 1.37 | 6.38
308.15 K, x1 = 0.2 | 1.05 | 13.1
308.15 K, x1 = 0.2997 | 0.799 | 20.89
308.15 K, x1 = 0.3997 | 0.533 | 29.16
308.15 K, x1 = 0.4998 | 0.37 | 38.73
308.15 K, x1 = 0.5999 | 0.271 | 49.63
308.15 K, x1 = 0.7001 | 0.183 | 61.64
308.15 K, x1 = 0.8998 | 0.082 | 87.11
313.15 K, x1 = 0.2 | 1.17 | 10.81
313.15 K, x1 = 0.2997 | 0.894 | 17.08
313.15 K, x1 = 0.3997 | 0.617 | 24.03
313.15 K, x1 = 0.4998 | 0.435 | 31.72
313.15 K, x1 = 0.7001 | 0.221 | 50.72
313.15 K, x1 = 0.8998 | 0.105 | 72.01
313.15 K, x1 = 1 | 0.072 | 83.06
318.15 K, x1 = 0.1003 | 1.71 | 4.406
318.15 K, x1 = 0.2 | 1.32 | 8.853
318.15 K, x1 = 0.2997 | 1.01 | 14.22
318.15 K, x1 = 0.4998 | 0.506 | 26.45
318.15 K, x1 = 0.5999 | 0.378 | 33.63
318.15 K, x1 = 0.8109 | 0.183 | 51.83
318.15 K, x1 = 0.8998 | 0.134 | 60.04
318.15 K, x1 = 1 | 0.094 | 69.26
323.15 K, x1 = 0.1003 | 1.91 | 3.679
323.15 K, x1 = 0.2 | 1.47 | 7.468
323.15 K, x1 = 0.2997 | 1.13 | 11.79
323.15 K, x1 = 0.3997 | 0.81 | 16.67
323.15 K, x1 = 0.5999 | 0.446 | 28.21
323.15 K, x1 = 0.7001 | 0.314 | 35.29
323.15 K, x1 = 0.8109 | 0.223 | 43.46
323.15 K, x1 = 0.8998 | 0.17 | 50.38
328.15 K, x1 = 0.2997 | 1.26 | 10.06
328.15 K, x1 = 0.4998 | 0.659 | 18.73
328.15 K, x1 = 0.5999 | 0.515 | 24.2
328.15 K, x1 = 0.7001 | 0.369 | 30.06
328.15 K, x1 = 0.8109 | 0.269 | 37.19
328.15 K, x1 = 0.8998 | 0.21 | 43.13
328.15 K, x1 = 1 | 0.159 | 50.12
333.15 K, x1 = 0.1003 | 2.3 | 2.79
333.15 K, x1 = 0.2 | 1.78 | 5.508
333.15 K, x1 = 0.3997 | 1.04 | 12.05
333.15 K, x1 = 0.4998 | 0.749 | 16.07
333.15 K, x1 = 0.5999 | 0.593 | 20.41
333.15 K, x1 = 0.7001 | 0.431 | 25.32
333.15 K, x1 = 0.8109 | 0.323 | 31.21
333.15 K, x1 = 0.8998 | 0.258 | 36.19
333.15 K, x1 = 1 | 0.203 | 42.31
338.15 K, x1 = 0.1003 | 2.53 | 2.4
338.15 K, x1 = 0.2 | 1.97 | 4.865
338.15 K, x1 = 0.2997 | 1.55 | 7.311
338.15 K, x1 = 0.4998 | 0.849 | 13.77
338.15 K, x1 = 0.5999 | 0.682 | 17.48
338.15 K, x1 = 0.7001 | 0.496 | 21.74
338.15 K, x1 = 0.8998 | 0.312 | 31.24
343.15 K, x1 = 0.2 | 2.17 | 4.241
343.15 K, x1 = 0.2997 | 1.71 | 6.401
343.15 K, x1 = 0.3997 | 1.3 | 8.856
343.15 K, x1 = 0.4998 | 0.948 | 11.78
343.15 K, x1 = 0.7001 | 0.572 | 19.03
343.15 K, x1 = 0.8109 | 0.449 | 23.52
343.15 K, x1 = 0.8998 | 0.374 | 27.44
343.15 K, x1 = 1 | 0.308 | 32.15
348.15 K, x1 = 0.1003 | 3.02 | 2.048
348.15 K, x1 = 0.2 | 2.37 | 3.722
348.15 K, x1 = 0.2997 | 1.88 | 5.565
348.15 K, x1 = 0.3997 | 1.46 | 7.954
348.15 K, x1 = 0.4998 | 1.07 | 10.3
348.15 K, x1 = 0.5999 | 0.877 | 13.38
348.15 K, x1 = 0.7001 | 0.656 | 16.16
348.15 K, x1 = 0.8109 | 0.524 | 20.12
348.15 K, x1 = 0.8998 | 0.445 | 23.5
348.15 K, x1 = 1 | 0.374 | 27.51
353.15 K, x1 = 0.1003 | 3.27 | 1.997
353.15 K, x1 = 0.2 | 2.58 | 3.564
353.15 K, x1 = 0.2997 | 2.07 | 5.199
353.15 K, x1 = 0.4998 | 1.19 | 9.541
353.15 K, x1 = 0.5999 | 0.978 | 12.09
353.15 K, x1 = 0.7001 | 0.749 | 14.98
353.15 K, x1 = 0.8109 | 0.608 | 18.65
353.15 K, x1 = 0.8998 | 0.522 | 21.71
353.15 K, x1 = 1 | 0.457 | 25.41

CS(C)=O + Cn1cc[n+](CCCN)c1.F[B-](F)(F)F
x2 = 0
Conditions | viscosity [mPa·s]
288.15 K | 2.605
293.15 K | 2.318
298.15 K | 2.089
303.15 K | 1.886
308.15 K | 1.717
313.15 K | 1.575
318.15 K | 1.447
323.15 K | 1.341
333.15 K | 1.164
338.15 K | 1.097
343.15 K | 1.034
348.15 K | 0.981
353.15 K | 0.934
